# Experimental data: article PMC7321408, “One-Pot Multicomponent Synthesis and Bioevaluation of Tetrahydroquinoline Derivatives as Potential Antioxidants, α-Amylase Enzyme Inhibitors, Anti-Cancerous and Anti-Inflammatory Agents” (Molecules, 2020)
# “And” between values parts separate entries of the source, which are not always exact repeats. Equal values may be shown once. Read-outs that look alike come from different tables or passages of the source.
# Experiments:
# [1] = MTT cytotoxicity against raw macrophages; assay type: cell-based, albino rats; conditions: albino, rat; for viability at 24 h, 1 µM / viability at 24 h, 10 µM / viability at 24 h, 50 µM / viability at 24 h, 100 µM: peritoneal macrophages (raw macrophages), raw macrophages, MTT, read-out: % Cell Viability; for IC50 at 24 h: primary peritoneal macrophages, mean ± SEM, n = 3
# Protocol: The % cell viability of the synthetic library was evaluated in vitro by measuring the mitochondrial dehydrogenase activity (MTT test) on raw macrophages.
# The cytotoxic potential was assessed by using an MTT 3-(4,5-dimethyl thiazole-2-yl)-2,5- diphenyl tetrazolium bromide assay. Briefly, macrophages were extracted from the peritoneal cavity of albino rats and plated at a density of 1 × 10^6 per well in a 96-well plate and incubated in a 5% CO2 incubator at 37 °C for 24 h. The cells were treated with various concentrations of the test compounds (100 µM, 50 µM, 10 µM and 1 µM) or vehicle alone. The test compounds were first dissolved in DMSO to make a 100 mM stock solution and then further dilutions were made from this stock solution. After 24 h of incubation, 20 µL of MTT (1 mg/mL in normal saline) was added into each well and incubated under the same conditions for 2 h. Mitochondrial succinate dehydrogenase converted MTT in live cells into purple formazan crystals. The formazan crystals were then solubilized in 100 µL DMSO, and the absorbance was measured at 570 nm. The % cell viability was calculated by the following formula; % cell viability = (abssample − absblank)/(abscontrol − absblank) × 100
# [2] = test system: NO generated by LPS-induced macrophages; test: Nitric oxide assay (Griess) in LPS-induced macrophages; assay type: cell-based, murine; conditions: Mus musculus, Macrophage, 18 h, LPS 1 µg/mL, read-out: % NO Production (Mean ± SEM)
# Protocol: A Griess reagent, a spectrophotometric determination of nitrite level, was carried out to measure the nitrite level in the conditioned medium of macrophages treated with lipopolysaccharide (LPS). Sodium nitrite (NaNO2) was used as a standard compound for the standard curve (Figure 8). The NO concentrations were obtained using the standard curve equation: y = 0.0083x + 0.0017, R^2 = 0.9999, where y is the absorbance at 540 nm and x is the NO concentration in µM. The inhibitory activity of the tested compounds towards NO generated by LPS-induced macrophages was obtained from the calculated value of x.
# The anti-inflammatory effect of the synthesized compounds in murine macrophages was evaluated by using the Griess reaction method, described previously. In brief, 1 × 10^6 were plated in a 96-well plate and incubated in a 5% CO2 incubator at 37 °C for 24 h, pre-treated with different concentrations (100 µM, 50 µM, 10 µM and 1 µM) of synthetic compounds for another 2 h and challenged with LPS (1 µg/mL) for an additional 18 h. Equal volumes of Griess reagent (1% sulphanilamide in 50% phosphoric acid and 0.1% naphthyl ethylenediamine dihydrochloride in distilled water and vortexed) and culture medium were mixed and the absorbance was taken at 540 nm. Lipopolysaccharide (LPS) was taken as a blank and piroxicam was taken as a positive control. A t-test was applied to determine the significance of the results.
# brine shrimp nauplii = test: Brine shrimp lethality bioassay; assay type: in vivo; conditions: 24 h, n = 3
# Protocol: Brine shrimp eggs were hatched in a shallow rectangular plastic dish and filled with artificial seawater, which was prepared with a commercial salt mixture. In a 96-well plate, 150 µL of artificial seawater was added and 10 nauplii were added into this. Test compounds (400, 200, 100 and 50 µg/mL) were added into each well and the final volume was made up by adding the artificial seawater. The well plate was left uncovered under a lamp. The number of surviving shrimps were counted and recorded after 24 h. The test was repeated in triplicate. […] The percentage mortality (%M) was also calculated by dividing the number of dead nauplii by the total number and then multiplied by 100.
# Hep-2C cells = test: MTT assay against Hep-2C cells; assay type: cell-based, Human; conditions: Homo sapiens, Hep2C, read-out: IC50 (Mean ± SEM) Hep-2C Cells
# Protocol: Hep-2C cell line experiments were performed in the Immunology Lab of the National Institute of Health (NIH), Islamabad, Pakistan. Human cervix carcinoma cells Hep-2C (ATCC HB-8065) were cultured in Dulbecco’s modified Eagle’s medium (DMEM), comprising 10% fetal calf serum (10% FCS) and supplemented with 2 mM L-glutamine, 100 U/mL penicillin, 100 µg/mL streptomycin and 1 mM Na pyruvate, at 37 °C in a humidified 5% CO2 incubator.
# The tetrazolium dye 3-(4, 5-dimethyl thiazolyl-2)-2, 5-diphenyltetrazolium bromide (MTT) was used to assess the cytotoxic potential of the test compounds. In living cells, MTT is reduced into its insoluble purple product formazan, which is measured spectrophotometrically.
# Hep-2C cells, in a density of 1 × 10^6 (> 90% cell viability), were cultured in a 96-well plate and treated with different concentrations of the test compounds for 24, 48 and 72 h. Ten microliters of MTT (1 mg per mL) were added per well followed by incubation for 4 h. Insoluble formazan crystals were dissolved by adding 100 µL of DMSO. Cells were then incubated for another 2 h. Absorbance was measured at 570 nm by a microplate reader. Untreated Hep-2C cells were taken as controls and DMSO as a negative. % cell viability = (abssample − absblank)/(abscontrol − absblank) × 100
# [3] = DPPH free radical scavenging assay; conditions: mean ± SEM, n = 3; for IC50 (DPPH radical scavenging): concentration to scavenge 50% of the DPPH radicals
# Protocol: The % free radical scavenging activity (%FRSA) of the synthetic compounds was evaluated by the discoloration of an unstable DPPH reagent to the stable yellow-colored 2,2-diphenyl-1-picrylhydrazine molecule by accepting one electron from a donor antioxidant; the mechanism is shown in Scheme 2.
# The % FRSA (free radical scavenging activity) of the synthetic compounds was determined by using the method of Tai et al. with slight modifications. The antioxidant potential was determined by detecting the capacity of the synthetic compounds to quench the DPPH free radicals. The synthetic compounds were taken in a 96-well plate at three-fold concentrations of 200 µg/mL, 66.6 µg/mL, 22.2 µg/mL and 7.4 µg/mL. DPPH free radicals were added to entire wells to make up the volume up to 200 µL. DMSO and ascorbic acid were taken as negative and positive controls, respectively. The absorbance was taken at 630nm using a microplate reader (ELx800 BioTek). The percentage of scavenging activity was calculated by the given formula:% scavenging activity = (1 − Abs/Abc) × 100
# Abs = sample’s absorbance; Abc = control’s absorbance.
# α-amylase enzyme = test: α-Amylase enzyme inhibitory assay; assay type: biochemical
# Protocol: An in vitro α-amylase enzyme inhibitory assay was performed by the standard protocol. Four milligrams per 1 mL of sample was prepared in DMSO. In each well of a 96-well plate, synthetic compounds were added to a final concentration of 200 µg/mL. To this, 15 μL phosphate buffer, […] α-amylase enzyme and 40 μL starch solution were added stepwise. The microplate was incubated at 50 °C for 30 min. […] The formula used to calculate the percent enzyme inhibition is:% Enzyme inhibition = [(As − An) ÷ (Ab − An] × 100
# As = sample’s absorbance; An = negative’s absorbance; Ab = blank’s absorbance
# [4] = Phosphomolybdenum-based total antioxidant capacity (TAC)
# Protocol: In the presence of an antioxidant, the phosphomolybdate ion gets reduced and a green phosphate–molybdate complex is formed, which is analyzed spectrophotometrically.
# The total antioxidant capacity was determined by using the phosphomolybdenum-based method. The method is based on the reduction of Mo (VI) to Mo (V), leading to the formation of a green-colored phosphate–molybdenum complex that gives absorption at 630 nm. In 96-well plates, 20 µL of the sample was added with 180 µL TAC reagents in it and incubated at 95 °C for 90 min in a water bath and cooled at room temperature. The results were calculated as µg AAE/mg.
# [5] = Total reducing power (TRP) assay
# Protocol: A TRP assay was carried out to evaluate the reducing potential of synthetic compounds. The method implicates reductones. These reductones are species with antioxidant potential that is believed to be due to their proton-donating capacity. […] The maximum value of reducing power was 104.7 ± 1.9 µg/AAE for SF5, followed by 103.18 ± 2.4 µg/AAE for SF7 and 84.57 ± 1.9 µg/AAE for SF12 (Figure 3 and Figure 4 (standard curve)).
# The assay is based on the reduction of Fe^+3 to Fe^+2. The method described by Khan et al. was used with slight modifications. One hundred microliters of test samples (4 mg/mL DMSO) were taken in an Eppendrof tube and 200 μL of phosphate buffer (0.2 mol/L, pH 6.6) and 250 µL of 1% potassium ferricyanide (K3Fe CN)6) were added. This was allowed to incubate at 50 °C for 20 min. Later on, 200 μL of 10% trichloroacetic acid (TCA) was added to the mixture. The mixture was centrifuged at 3000 rpm at room temperature for 10 min. After centrifugation, 150 µL of supernatant were transferred to microplate with FeCl3 (50 μL, 0.1%) and the absorbance was taken at 630 nm. The results were calculated as µg AAE/mg.
IC50 (DPPH radical scavenging) [3],IC50 (α-amylase) (α-amylase enzyme),SMILES,"viability at 24 h, 1 µM [1]","viability at 24 h, 10 µM [1]","viability at 24 h, 50 µM [1]","viability at 24 h, 100 µM [1]",IC50 at 24 h [1],activity at 1 µM [2],activity at 10 µM [2],activity at 50 µM [2],activity at 100 µM [2],LD50 ± SEM (brine shrimp lethality) (brine shrimp nauplii),% DPPH Scavenging Activity ([3]; 7.4 µg/mL),% DPPH Scavenging Activity ([3]; 22.22 µg/mL),% DPPH Scavenging Activity ([3]; 66.66 µg/mL),% DPPH Scavenging Activity ([3]; 200 µg/mL),Total antioxidant capacity (TAC) [4],Total reducing power (TRP) [5],also measured
29.19 ± 0.25 µg/mL,27.39 ± 1.43 µg/mL,"Clc1cccc(NCN2CCCc3ccccc32)c1 [SF8, 3-Chloro-N-((3,4-dihydroquinolin-1(2H)-yl)methyl) aniline]",97 ± 1.04%,83 ± 0.78%,68 ± 0.79%,52 ± 1%,21.2 ± 0.33 µM,39.4 ± 0.48%,29.4 ± 0.44%,24.1 ± 0.41%,15 ± 0.33%,123.4 ± 1.87 µg/mL,27.98 ± 0.24%,50.17 ± 0.32%,52.12 ± 0.36%,62.35 ± 0.14%,,,IC50 (Hep-2C cells; 24 h): 20.2 ± 1.07 µM; IC50 (Hep-2C cells; 48 h): 15.7 ± 1.08 µM; IC50 (Hep-2C cells; 72 h): 11.9 ± 1.04 µM
50.76 ± 0.37 µg/mL,18.55 ± 0.89 µg/mL,"Brc1ccc(NCN2CCCc3ccccc32)cc1 [SF9, 4-Bromo-N-((3,4-dihydroquinolin-1(2H)-yl)methyl) aniline]",98 ± 0.87%,91 ± 0.91%,84 ± 1.21%,82 ± 0.96%,14.2 ± 0.26 µM,66.97 ± 0.61%,58.54 ± 0.55%,55.6 ± 0.51%,49.07 ± 0.45%,139 ± 0.87 µg/mL,7.64 ± 0.26%,19.35 ± 0.11%,50.28 ± 0.22%,67.46 ± 0.14%,179.76 ± 1.6231 µg/AAE,,% inhibition of α-amylase enzyme (α-amylase enzyme; 200 µg/mL): 89.93% and 93%
47.81 ± 0.27 µg/mL,,"CC(=O)N(CN1CCCc2ccccc21)c1ccccc1 [SF10, N-((3,4-dihydroquinolin-1(2H)-yl)methyl)-N-phenylacetamide]",100 ± 0.88%,95 ± 0.93%,80 ± 1.24%,76 ± 1.2%,24.8 ± 0.269 µM,62.4 ± 0.65%,58.5 ± 0.59%,42.5 ± 0.54%,33.84 ± 0.33%,196.1 ± 1.12 µg/mL,23.45 ± 0.28%,31.89 ± 0.21%,40.77 ± 0.31%,49.73 ± 0.19%,,no activity,
39.33 ± 0.28 µg/mL,,"COc1ccc(NCN2CCCc3ccccc32)cc1 [SF12, N-((3,4-dihydroquinolin-1(2H)-yl)methyl)-4-methoxyaniline]",87 ± 0.82%,84 ± 0.87%,57 ± 0.89%,41 ± 0.86%,35.1 ± 0.5 µM,49.7 ± 0.61%,32.3 ± 0.59%,26.5 ± 0.578%,23.2 ± 0.55%,128 ± 1.87 µg/mL,11.24 ± 0.11%,31.80 ± 0.42%,54.10 ± 0.17%,64.20 ± 0.31%,191.19 ± 1.1231 µg/AAE,84.57 ± 1.9 µg/AAE,
